Patent US20250296939A1, “BENZOTHIOPHENE COMPOUND” (Kyoto Pharmaceutical Industries, Ltd., priority 2022, published 2025)

Columns and labels:
[1] = target: GST-fused human Keap1 (amino acid residues: 325-642) protein (Homo sapiens (Human), UniProt Q14145); experiment: FP assay (in vitro): inhibition of binding between Nrf2 and Keap1 by fluorescence polarization; details: 20 nM GST-fused human Keap1, 10 nM FITC-labeled Nrf2 peptide, 2 hr at room temperature
Method: Experimental Example 1: FP Assay (In Vitro)
The inhibitory activity of test compounds on the binding between Nrf2 and Keap1 was determined by fluorescence polarization. A solution of 50 mM Tris-HCl pH.8.0 (NACALAI, REF: 06938-15), and 5 mM DTT (SIGMA-ALDRICH, REF: 646563-10X.5 mL) was used as a buffer solution. 8 μL of a buffer solution containing 40 nM GST-fused human Keap1 (amino acid residues: 325-642) protein (Protein tech, REF: Ag0779) was taken in a black 384-well plate (final concentration 20 nM), and 4 μL of the test compound solution prepared to each concentration in buffer solution was added thereto. A well containing a portion of the buffer solution without Keap1 was placed as a negative control. A well with no compound was used as a positive control. 40 nM of FITC-labeled Nrf2 peptide (FITC-X-LQLDEETGEFLPIQ (X=ε-Acp), Peptide Institute Inc.) was added thereto (10 nM final concentration). The wells were incubated at room temperature for 2 hr, and then fluorescence polarization was measured with a plate reader SPECTRAMAX Paradigm (Molecular devices) at excitation wavelength of 485 nm and fluorescence wavelength of 535 nm. The fluorescence polarization of the negative control was set to 100% inhibition and that of the positive control to 0% inhibition, and the inhibitory rate upon addition of the test compound was calculated using the following formula.

[2] = system: NQO1 activity in Hepa1c1c7 cells; experiment: NAD(P)H: quinone oxidoreductase-1 (NQO1) enzyme induction assay (in vitro); assay type: cell-based, mouse; details: Mus musculus, Hepa-1c1c7, NQO1 activity upon addition of 400 nM of test compound, about 48 hr, ratio from the base without the compound
Method: Experimental Example 2: NAD(P)H: Quinone Oxidoreductase-1 (NQO1) Enzyme Induction Assay (In Vitro)
The NQO1 assay was performed based on a previous report (Methods in Enzymology 2004; 382: 243-258). Hepa1c1c7 cells (mouse hepatocyte cell line, ATCC, cat. no. CRL-2026) were cultured in D-MEM medium containing 10% FBS and 1% penicillin/streptomycin (5% CO2, 37° C.), and seeded into 96-well plates (Corning REF. 353072) at 1×10^4 cells/well. A portion of the wells were prepared with medium only for background measurement without seeding cells. The next day, 400 nM of the test compound (0.004% of the final concentration in DMSO) dissolved in DMSO was added thereto, and the wells were incubated for about 48 hr. A well without adding the test compound was prepared for base activity assay in part.
Cell lysate (solution containing 0.8% digitonin, 2 mM EDTA), reaction solution (solution containing 25 mM Tris-HCl, 0.07% albumin, 0.01% Tween-20, 2 U/mL glucose-6-phosphate dehydrogenase, 5 μM flavin adenine dinucleotide, 1 μM glucose-6-phosphate, 30 μM nicotinamide adenine dinucleotide phosphate, 0.03% 3-(4,5-dimethyl-2-thiazolyl)-2,5-diphenyltetrazolium bromide (MTT), and 50 μM menadione), stop solution (solution containing 0.3 mM dicoumarol and 5 mM potassium dihydrogen phosphate, pH 7.4) were prepared. After the medium was removed, 50 μL of the cell lysate was added and incubated at 37° C. for 10 minutes, followed by shaking at room temperature for 10 minutes. 200 μL of reaction solution was added thereto, and allowed to stand for 5 minutes at room temperature. 50 μL of the stop solution was added thereto, and absorbance was measured at 610 nm on a SpectraMax PLUS384 (Molecular devices) or POWERSCAN HT (DS Pharma Biomedical). The test results were analyzed in Excel, and the NQO1 activity upon addition of 400 nM of test compound was calculated as a ratio from the base without the compound.
The results of each test compound in this test are shown in the following Table 2 (A: 5<NQO1 activity ratio, B: 3<NQO1 activity ratio 5, C: 1.5<NQO1 activity ratio 3).

Sequence of GST-fused human Keap1 (amino acid residues: 325-642) protein (Q14145 325-624 limits assumed): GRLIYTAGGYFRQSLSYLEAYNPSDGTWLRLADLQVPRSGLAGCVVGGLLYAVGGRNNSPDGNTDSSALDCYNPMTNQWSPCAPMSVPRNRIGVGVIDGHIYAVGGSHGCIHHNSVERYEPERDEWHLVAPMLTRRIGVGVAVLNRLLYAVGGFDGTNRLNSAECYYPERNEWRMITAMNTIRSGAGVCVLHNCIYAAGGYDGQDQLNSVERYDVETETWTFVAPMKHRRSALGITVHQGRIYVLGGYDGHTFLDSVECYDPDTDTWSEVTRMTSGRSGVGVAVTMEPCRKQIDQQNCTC

IC50 [1] [nM]	Compound	fold induction at 0.4 µM [2]
30 to 300	CC[C@@H]1CN(Cc2cc([C@@H](CC(=O)O)c3ccc4c(nnn4C)c3C)cc3ccsc23)Cc2nc(O)ccc2O1 [Example 2, (3R)-3-(1,4-Dimethyl-1H-benzotriazol-5-yl)-3-(7-{[(2R)-2-ethyl-7-hydroxy-2,3-dihydropyrido[2,3-f][1,4]oxazepin-4(5H)-yl]methyl}-1-benzothiophen-5-yl)propanoic acid]	> 5
10 to 30	Cc1c([C@@H](CC(=O)O)c2cc(CN3Cc4nc(O)ccc4OC4(CC4)C3)c3sccc3c2)ccc2c1nnn2C [Example 3, (3S)-3-(1,4-Dimethyl-1H-benzotriazol-5-yl)-3-{7-[(7′-hydroxy-3′H-spiro[cyclopropane-1,2′-pyrido[2,3-f][1,4]oxazepin]-4′(5′H)-yl)methyl]-1-benzothiophen-5-yl}propanoic acid]	> 5
10 to 30	Cc1c([C@H](CC(=O)O)c2cc(CN3Cc4nc(O)ccc4OC4(CC4)C3)c3sccc3c2)ccc2c1nnn2C [Example 4, (3R)-3-(1,4-Dimethyl-1H-benzotriazol-5-yl)-3-{7-[(7′-hydroxy-3′H-spiro[cyclopropane-1,2′-pyrido[2,3-f][1,4]oxazepin]-4′ (5′H)-yl)methyl]-1-benzothiophen-5-yl}propanoic acid]	> 5
10 to 30	Cc1c([C@@H](CC(=O)O)c2cc(CN3Cc4nc(O)ccc4O[C@H](C4CC4)C3)c3sccc3c2)ccc2c1nnn2C [Example 6, (3S)-3-(7-{[(2R)-2-Cyclopropyl-7-hydroxy-2,3-dihydropyrido[2,3-f][1,4]oxazepin-4(5H)-yl]methyl}-1-benzothiophen-5-yl)-3-(1,4-dimethyl-1H-benzotriazol-5-yl)propanoic acid]	> 5
30 to 300	Cc1c([C@@H](CC(=O)O)c2cc(CN3Cc4nc(O)ccc4O[C@@H](C4CC4)C3)c3sccc3c2)ccc2c1nnn2C [Example 7, (3S)-3-(7-{[(2S)-2-Cyclopropyl-7-hydroxy-2,3-dihydropyrido[2,3-f][1,4]oxazepin-4(5H)-yl]methyl}-1-benzothiophen-5-yl)-3-(1,4-dimethyl-1H-benzotriazol-5-yl)propanoic acid]	> 5
30 to 300	Cc1c([C@H](CC(=O)O)c2cc(CN3Cc4nc(O)ccc4O[C@@H](C4CC4)C3)c3sccc3c2)ccc2c1nnn2C [Example 8, (3R)-3-(7-{[(2S)-2-Cyclopropyl-7-hydroxy-2,3-dihydropyrido[2,3-f][1,4]oxazepin-4(5H)-yl]methyl}-1-benzothiophen-5-yl)-3-(1,4-dimethyl-1H-benzotriazol-5-yl)propanoic acid]	3 to 5
30 to 300	Cc1c([C@@H](CC(=O)O)c2cc(CN3Cc4nc(O)ccc4O[C@H](C4CC4)C3)c3sccc3c2)cnc2c1nnn2C [Example 9, (3S)-3-(7-{[(2R)-2-Cyclopropyl-7-hydroxy-2,3-dihydropyrido[2,3-f][1,4]oxazepin-4(5H)-yl]methyl}-1-benzothiophen-5-yl)-3-(3,7-dimethyl-3H-[1,2,3]triazolo[4,5-b]pyridin-6-yl)propanoic acid]	> 5
10 to 30	Cc1c([C@H](CC(=O)O)c2cc(CN3Cc4nc(O)ccc4O[C@H](C4CC4)C3)c3sccc3c2)cnc2c1nnn2C [Example 10, (3R)-3-(7-{[(2R)-2-Cyclopropyl-7-hydroxy-2,3-dihydropyrido[2,3-f][1,4]oxazepin-4(5H)-yl]methyl}-1-benzothiophen-5-yl)-3-(3,7-dimethyl-3H-[1,2,3]triazolo[4,5-b]pyridin-6-yl)propanoic acid]	> 5
≤ 10	Cc1c([C@H](c2cc(CN3Cc4nc(O)ccc4O[C@H](C4CC4)C3)c3sccc3c2)C(C)(C)C(=O)O)ccc2c1nnn2C [Example 14, (3S)-3-(7-{[(2R)-2-Cyclopropyl-7-hydroxy-2,3-dihydropyrido[2,3-f][1,4]oxazepin-4(5H)-yl]methyl}-1-benzothiophen-5-yl)-3-(1,4-dimethyl-1H-benzotriazol-5-yl)-2,2-dimethylpropanoic acid]	> 5
